According to patent publication US10632147B2, “Methods and compositions for treating inflammatory disorders” (priority 2007, dated 2020):

Columns and labels:
human norovirus = test: Norovirus carrier test; details: ceramic tiles and stainless steels, 1 min contact time, 20-200 ppm, RNA testing
[1] = system: Bacteroides fragilis ATCC #25285; test: Microbial Time Kill Assay; type: cell-based; details: 150 ppm AFC, 15 second contact time
[2] = system: Salmonella typhimuium (strains TA1535, TA1537, TA98 and TA100); test: Bacterial mutagenicity; details: 241-252 ppm AFC, absence and presence of liver S9 fraction
Adenovirus, type V = test: Virucidal suspension test; type: cell-based
[3] = system: Streptococcus pyogenes ATCC #19615; test: Microbial Time Kill Assay; type: cell-based; details: 150 ppm AFC, 15 second contact time
[4] = system: Proteus mirabilis ATCC #43071; test: Microbial Time Kill Assay; type: cell-based; details: 150 ppm AFC, 15 second contact time
[5] = system: Micrococcus luteus ATCC #10240; test: Microbial Time Kill Assay; type: cell-based; details: 150 ppm AFC, 15 second contact time
Salmonella choleraesuis = test: Carrier test; type: cell-based; details: <180 ppm, glass slide carriers
[6] = system: Mycobacterium avium ATCC 15769; test: Mycobactericidal suspension test; type: cell-based
Method: (§1) Broth cultures of either M. terrae (ATCC 15755) and M. avium (ATCC 15769) were grown for up to 35 days at 35° C. […] The plates were incubated for 4-5 weeks at 35° C. and colonies counted.

[7] = system: Mycobacterium terrae ATCC 15755; test: Mycobactericidal suspension test; type: cell-based
Method: as §1

[8] = system: Orthopoxvirus from vaccine; type: cell-based
coliphage MS2 = test: MS2 coliphage suspension test; type: cell-based; details: 20-200 mg/L, within a contact time of 20 seconds
[9] = system: Enterobacter aerogenes ATCC #51342; test: Microbial Time Kill Assay; type: cell-based; details: 150 ppm AFC, 15 second contact time
[10] = Delayed dermal sensitization in guinea pig maximization test; type: in vivo; details: intradermal injection and occlusive patch; scored 24 and 48 hours after patch removal; solution 690 ppm AFC, hydrogel 500 ppm AFC
[11] = system: Acinetobacter baumannii ATCC #19606; test: Microbial Time Kill Assay; type: cell-based; details: 150 ppm AFC, 15 second contact time
[12] = system: Staphylococcus epidermidis ATCC #14990; test: Microbial Time Kill Assay; type: cell-based; details: 150 ppm AFC, 15 second contact time
[13] = system: Bacillus cereus CIP 7 803; test: Sporicidal suspension test; type: cell-based
[14] = Pilot study HOCl versus Sulfamylon as irrigant over excised and grafted burn
[15] = system: Pseudomonas aeruginosa ATCC #9027; test: Microbial Time Kill Assay; type: cell-based; details: 150 ppm AFC, 15 second contact time
[16] = system: Serratia marcescens ATCC #14756; test: Microbial Time Kill Assay; type: cell-based; details: 150 ppm AFC, 15 second contact time
[17] = system: Haemophilus influenza ATCC #8149; test: Microbial Time Kill Assay; type: cell-based; details: 150 ppm AFC, 15 second contact time
[18] = system: Aspergillus niger ATCC 16404; test: Fungicidal suspension test; type: cell-based
Method: (§2) Fungicidal activity tests were performed using hypochlorous acid (140-150 ppm) against Candida albicans ATCC 10231 and Aspergillus niger ATCC 16404. Stock culture of Candida albicans ATCC 10231 and Aspergillus niger ATCC 16404 were grown and maintained on Malt Extract Agar at 30° C. […] All samples were serially diluted, plated out on Tryptic Soy Agar, incubated at 37° C. for 3 days and colonies forming units counted.

[19] = system: Candida albicans ATCC 10231; test: Fungicidal suspension test; type: cell-based
Method: as §2

[20] = system: Enterococcus faecium ATCC 10541; test: Bactericidal suspension test; type: cell-based
[21] = Ocular irritation study (Draize); type: in vivo, New Zealand white rabbits; details: 0.1 ml, 689.5 ppm AFC, conjunctival sac; Draize scoring days 1, 2 and 3 post dose
Method: An eye irritation study was conducted on six healthy New Zealand white rabbits, free from evidence of ocular irritation and corneal abnormalities. The test article (0.1 ml hypochlorous acid, 689.5 ppm AFC) was placed into the conjunctival sac of one eye of each rabbit. The contralateral eye served as a control. The eyes were examined and scored by the Draize technique for any evidence of irritation or abnormalities of the cornea, on days 1, 2, and 3 post dose. The primary eye irritation score of each rabbit, each day was calculated. All eyes appeared normal at each observation period and there were no abnormal physical signs noted.

[22] = hypochlorous acid 40-180 ppm, suspension test

## OCl [hypochlorous acid]
Human norovirus
  inactivation of human norovirus: > 3 log10
[1]
  % Reduction (% Kill): >99.999%
  HOCl Solution Log10: ≤1
  HOCl Solution Survivors: <10
  Log Reduction: ≥5.66
[2]
  mutagenic activity: No evidence of mutagenic activity
Adenovirus, type V
  Test Result (Log reduction): >10^4 in 15 min.
  contact time after which pass was achieved: 15 min
[3]
  % Reduction (% Kill): >99.999%
  HOCl Solution Log10: ≤1
  HOCl Solution Survivors: <10
  Log Reduction: ≥5.53
[4]
  % Reduction (% Kill): >99.999%
  HOCl Solution Log10: ≤1
  HOCl Solution Survivors: <10
  Log Reduction: ≥5.40
[5]
  % Reduction (% Kill): >99.999%
  HOCl Solution Log10: ≤1
  HOCl Solution Survivors: <10
  Log Reduction: ≥5.04
Salmonella choleraesuis
  Time to achieve pass: 2 min
[6]; [22]
  contact time after which pass was achieved: 15 s
[6]; in 5 min., 20° C. ± 1° C.
  Test Result (Log reduction): >10^5 in 5 min.
[7]; [22]
  contact time after which pass was achieved: 15 s
[7]; in 5 min., 20° C. ± 1° C.
  Test Result (Log reduction): >10^5 in 5 min.
[8]; [22]
  contact time after which pass was achieved: 15 min
[8]; in 15 min., 20° C. ± 1° C.
  Test Result (Log reduction): >10^4 in 15 min.
Coliphage MS2
  reduction of MS2: 3 log10
[9]
  % Reduction (% Kill): >99.999%
  HOCl Solution Log10: ≤1
  HOCl Solution Survivors: <10
  Log Reduction: ≥5.43
[10]
  delayed dermal contact sensitization: no evidence of causing a delayed dermal contact sensitization
[11]
  % Reduction (% Kill): >99.999%
  HOCl Solution Log10: ≤1
  HOCl Solution Survivors: <10
  Log Reduction: ≥5.15
[12]
  % Reduction (% Kill): >99.999%
  HOCl Solution Log10: ≤1
  HOCl Solution Survivors: <10
[13]; [22]
  contact time after which pass was achieved: 60 min
[13]; in 60 min., 20° C. ± 1° C.
  Test Result (Log reduction): >10^6 in 60 min.
[14]
  safety profile (adverse effects): absence of adverse effects
[14]; 150-180 ppm AFC
  graft take and infection prevention compared with Sulfamylon: equivalency
  pain reduction (visual analogue scale) compared with Sulfamylon group: better
[15]
  % Reduction (% Kill): >99.999%
  HOCl Solution Log10: ≤1
  HOCl Solution Survivors: <10
  Log Reduction: ≥5.11
[16]
  % Reduction (% Kill): >99.999%
  HOCl Solution Log10: ≤1
  HOCl Solution Survivors: <10
  Log Reduction: ≥5.08
[17]
  % Reduction (% Kill): >99.999%
  HOCl Solution Log10: ≤1
  HOCl Solution Survivors: <10
  Log Reduction: ≥5.59
[18]; [22]
  contact time after which pass was achieved: 15 s
[18]; in 5 min., 20° C. ± 1° C.
  Test Result (Log reduction): >10^4 in 5 min.
[19]; [22]
  contact time after which pass was achieved: 15 s
[19]; in 5 min., 20° C. ± 1° C.
  Test Result (Log reduction): >10^4 in 5 min.
[20]; [22]
  contact time after which pass was achieved: 15 s
[20]; in 5 min., 20° C. ± 1° C.
  Test Result (Log reduction): >10^5 in 5 min.
[21]
  ocular irritation: no ocular irritation
